Test results published in patent US6117859A, “Method of relieving chronic inflammation by using 5-alkylsulfonylsalicylanilides” (The Research Foundation of State University of New York, priority 1999, dated 2000).

Assays:
[1] = Solubility of representative compounds in various solvent systems; type: physicochemical
Procedure: The solubility of representative compounds of this invention in various solvent systems was determined. The solvents included ethanol, propylene glycol, SLS, Tween 80™ and combinations thereof.

[2] = system: ear weight gain produced by multiple doses of TPA in mice; assay: Chronic (multiple dose) TPA mouse ear inflammation assay, ear weight gain; type: in vivo, mouse (female CD-1); conditions: for % Inhibition of Ear Weight Gain, Actual / % Inhibition of Ear Weight Gain, Relative to Hydrocortisone (HCV) = 100%: multiple doses of TPA; for % Inhibition of Ear Weight Gain, Relative to Hydrocortisone (HCV) = 100%: head prints 1.25 eg/ear
Procedure: The acute skin inflammation model described in Example 1, tests the ability of a compound to prevent inflammation and thus must be applied prophylactically. Most clinical situations, however, are present as chronic inflammatory conditions. […] The effects of the compounds of the present invention and Salifluor on chronically inflamed skin was measured in the mouse ear model that utilizes multiple TPA doses over a 10-day period to produce the inflammatory response.
The assay used female CD-1 mice (7-9 weeks of age). Following a 2-week quarantine, mice were randomly assigned to test groups (5 mice/groups). TPA (10 uL of 0.01 TPA in acetone) was administered to both the inner and outer surface of each ear (2μg/ear) on day 0,2,4,7, and 9 on protocol. On Day 7,8 and 9, two applications of test article were applied to each ear 2 and 4 hours after dosing with TPA. The test articles were administered in 10 uL aliquots to both the inner and outer surface of each ear (20 μl total/dose). […] Hydrocortisone-17-valerate (HCV, 20μg/ear) was employed as a positive control. Mice were sacrificed at Day 10 on protocol and uniform punch biopsies (approximately 8 mm dia.) were taken from each ear. While on protocol, dermal irritation was scored semiquantitatively at Day 1,3,5,8, and 10.
Inhibition of TPA stimulated increased ear weight was used as an initial measure of efficacy for all of the agents tested. One biopsy from each mouse was also quick frozen and stored at -70° C. for later assay of myleoperoxidase, an enzyme associated with infiltrating PMN, or other measure of efficacy. The remaining biopsy from each mouse treated with Trifluorosal or HCV was fixed in formalin and processed for histopathologic evaluation, including measurement of cellular infiltration (PMNs, endothelial cells, macrophages) and epidermal thickness at 20 random sites along the length of the specimen.
Initially, a dose-response curve for multiple doses of TPA to produce mouse ear weight gain was generated in order to determine the concentration of TPA to be employed in the inhibition studies. […] Another major difference between the multiple TPA dose (or chronic assay for inflammation) and the single TPA dose (or acute assay for inflammation) in the mouse ear is sensitivity to Non-steroidal antiinflammatory drugs (NSAIDs) and antihistamines.

[3] = prior art compound; cited from earlier work
[4] = prior art compound; cited from earlier work; remark: listed apart in the source
[5] = in vivo; cited from earlier work
[6] = Stability in solution by HPLC (TMF-10, 40° C.); type: physicochemical; conditions: 0.3 mg/ml in 30% ethanolic water, four weeks
Procedure: An analytical method to determine concentration and stability of some representative compounds of this invention in solution employing high pressure liquid chromatography (HPLC) was developed and validated. Both isocratic and gradient mobile phases of acetonitrile, water and methanol were investigated on a C-18 silica reverse solid phase column (Zorbax). Results were obtained using a 12 minute gradient of 80% to 100% methanol/water at a flow rate of 1.5 ml/minutes. Detection was carried out by measuring absorbance at 280 nm. Under these conditions TMF-10 and TMC-l0 each produced symmetrical peaks with retention times of 7.5 and 3.0 minutes, respectively. TMF-8 and TMF-12 had retention times of 4 and 9 minutes respectively. […] The lowest detectable quantity measured for all three compounds was 5.0 ng.
A 0.3 mg/ml solution of TMF-10 in 30% ethanolic water was maintained at 40° C. for several weeks. At various times samples were analyzed for decomposition employing the HPLC method described in Example 2.

[7] = Single dose oral tolerance in rats; type: in vivo, rat (male weaning Sprague-Dawley); conditions: single dose 2.5 or 0.75 g/kg in 5% CMC, 7 days
Procedure: To test for tolerance of the administered compounds, male weaning Sprague-Dawley rats were fed in a single dose of 2.5 or 0.75 g/kg of TMF-12, TMF-10, TMC-10 or TPC-10 in 5% carboxymethyl cellulose (CMC) or CMC alone. […] At completion of the 7 day observation period, necropsies were performed on all animals.

[8] = aqueous buffer, pH 10 K-buffer @ 35° C.
[9] = aqueous buffer, pH 10 Na-buffer @ 22° C.
[10] = organic solvent or mixture, Ethanol @ 19° C.
[11] = organic solvent or mixture, Propylene Glycol @ 20° C.

Row | Structure (SMILES) | solubility ([1]; +1% sls) | solubility ([1]; +2% sls) | solubility ([1]; +4% sls) | solubility [1, 8] | solubility [1, 9] | solubility [1, 10] | solubility [1, 11] | % Inhibition of Ear Weight Gain, Actual [2] | % Inhibition of Ear Weight Gain, Relative to Hydrocortisone (HCV) = 100% [2] | other results
1 | CCCCCCCC(=O)c1ccc(O)c(C(=O)Nc2cccc(C(F)(F)F)c2)c1 [Salifluor, reference compound] | 230 µg/mL | 290 µg/mL | 380 µg/mL | 1.14 µg/mL | 3.91 µg/mL | 13000 µg/mL | 550 µg/mL | 0% | 0% | Solubility in aqueous solutions at neutral pH [3]: relatively insoluble in aqueous solutions at neutral pH; pKa [4]: 6.1; Anti-inflammatory activity in clinical trials [5]: have been reported to have anti-inflammatory activity in clinical trials
2 | CCCCCCCCCCS(=O)(=O)c1ccc(O)c(C(=O)Nc2cccc(C(F)(F)F)c2)c1 [TMF-10] | 920 µg/mL | 1280 µg/mL | 2080 µg/mL | < 0.1 µg/mL | 1.89 µg/mL | 44700 µg/mL | 1700 µg/mL | 54.7% | 59.9% | solubility ([1]; +0.5% tween 80): 760 µg/mL; solubility ([1]; +1.5% tween 80): 2020 µg/mL; solubility ([1]; +2% SLS + 0.5% Tween 80): 1350 µg/mL; solubility ([1]; +2% SLS + 1.0% Tween 80): 1910 µg/mL; solubility ([1]; +2% SLS + 2.0% Tween 80): 2870 µg/mL; solubility ([1]; +3.0% tween 80): 4130 µg/mL; solubility ([1]; ph 10 na-buffer +0.5% sls, pH 10 Na-buffer @ 22° C. +0.5% SLS): 370 µg/mL; Decomposition in solution [6]: no decomposition of TMF-10 was detected; Inhibition of ear weight gain ([2]; 5.0 mg/ear (printed 'mc/ear' for Trifluorosal)): 69.8%; Activity in chronic assay (in words) ([2]; 1.25-5 mg/ear, remaining experiments): demonstrated consistent activity; Inhibition of ear weight gain ([2]; 2.5 or 1.25 mg/ear (two values printed for three doses)): 0.0%; Illness or deaths [7]: No illness or deaths occurred
